Measured values from ChEMBL document CHEMBL1140748, “Synthesis and biological evaluation of novel 2,4-diaminoquinazoline derivatives as SMN2 promoter activators for the potential treatment of spinal muscular atrophy” (J Med Chem, 2008).

Assays:
[1] = Activation of SMN2 promoter in mouse NSC34 cells assessed as induction of beta-lactamase activity; assay type: functional, cell-based
[2] = Activation of SMN2 promoter in mouse NSC34 cells assessed as induction of beta-lactamase activity relative to nonactivated cells; assay type: functional
For activity in this document: test concentration or dose not given here.

SMILES	EC50 ([1]; Mus musculus, NSC-34) [nM]	Activity [2]	EC50 ([1]; nsc34) [nM]
Nc1nc(N)c2c(OC3(c4cccc(Cl)c4)CC3)cccc2n1	290	–	–
Nc1nc(N)c2c(OCC3CCN(S(=O)(=O)c4ccc(F)cc4F)CC3)cccc2n1	82	2	–
CC(Oc1cccc2nc(N)nc(N)c12)c1ccc(F)cc1 (racemic)	18	–	–
Nc1nc(N)c2c(COc3ccccc3Cl)cccc2n1	1160	2.2	–
Nc1nc(N)c2c(OCC3CCN(S(=O)(=O)c4ccc(Cl)cc4)CC3)cccc2n1	603	2	–
Cc1ccccc1S(=O)(=O)N1CCC(COc2cccc3nc(N)nc(N)c23)CC1	545	2	–
Cc1ccccc1CN1CCC(COc2cccc3nc(N)nc(N)c23)CC1	18	1.9	–
CC(C)(C)COc1cccc2nc(N)nc(N)c12	650	2.1	–
CCOc1cccc2nc(N)nc(N)c12	170	2.1	–
COc1ccc(OCc2cccc3nc(N)nc(N)c23)cc1	1400	2.1	–
Nc1nc(N)c2c(OCC3CCN(S(=O)(=O)c4ccc5ccccc5c4)CC3)cccc2n1	464	2	–
Nc1nc(N)c2c(Oc3ccc(Cl)cc3)cccc2n1	2060	1.84	–
CC(Oc1cccc2nc(N)nc(N)c12)c1cccc(F)c1 (racemic; form 2)	50	–	–
Cc1ccccc1COc1cccc2nc(N)nc(N)c12	280	1.6	–
Nc1nc(N)c2c(OCc3cccc(C(F)(F)F)c3)cccc2n1	23	1.5	–
Nc1nc(N)c2c(OCC3CCN(S(=O)(=O)c4ccc(F)c(F)c4)CC3)cccc2n1	40	2.1	–
Nc1nc(N)c2c(OCc3ccc(F)cc3F)cccc2n1	120	1.8	–
Nc1nc(N)c2c(OCC3CCN(C(=O)c4ccc5ccccc5c4)CC3)cccc2n1	151	2.4	–
C[C@@H](Oc1cccc2nc(N)nc(N)c12)c1ccccc1	220	–	–
Nc1nc(N)c2c(Oc3cccc4ccncc34)cccc2n1	2440	1.59	–

SMILES	EC50 ([1]; Mus musculus, NSC-34) [nM]	Activity [2]	EC50 ([1]; nsc34) [nM]
COc1ccccc1COc1cccc2nc(N)nc(N)c12	65	1.6	–
Nc1nc(N)c2c(Oc3ccc(F)cc3)cccc2n1	1320	1.7	–
CC(Oc1cccc2nc(N)nc(N)c12)c1ccccc1Cl (racemic)	290	–	–
CC(C)(C)C(Oc1cccc2nc(N)nc(N)c12)c1ccc(Cl)cc1 (racemic)	7760	–	–
CC(Oc1cccc2nc(N)nc(N)c12)c1cc(F)cc(F)c1 (racemic)	35	–	–
C[C@H](Oc1cccc2nc(N)nc(N)c12)c1ccccc1	60	–	–
CCC(Oc1cccc2nc(N)nc(N)c12)c1ccc(Cl)cc1 (racemic)	170	–	–
C[C@@H](Oc1cccc2nc(N)nc(N)c12)c1cccc(Cl)c1	32	–	–
Nc1nc(N)c2c(OC3(c4cccc(Cl)c4)CCCCC3)cccc2n1	1710	–	–
CC(Oc1cccc2nc(N)nc(N)c12)c1ccccc1 (racemic)	240	–	–
C[C@H](Oc1cccc2nc(N)nc(N)c12)c1cccc2ccccc12	2390	–	–
CC(Oc1cccc2nc(N)nc(N)c12)c1cccc(C(F)(F)F)c1 (racemic)	47	–	–
CC(C)(Oc1cccc2nc(N)nc(N)c12)c1cccc(Cl)c1	2330	–	–
CC(Oc1cccc2nc(N)nc(N)c12)c1ccc(Cl)c(Cl)c1 (racemic)	320	–	–
CC(Oc1cccc2nc(N)nc(N)c12)c1ccc(C(F)(F)F)cc1 (racemic)	50	–	–
CC(Oc1cccc2nc(N)nc(N)c12)c1ccc2c(c1)OCO2 (racemic)	1130	–	–
CC(Oc1cccc2nc(N)nc(N)c12)c1cccc(F)c1 (racemic; form 1)	–	–	55
C[C@H](Oc1cccc2nc(N)nc(N)c12)c1ccc2ccccc2c1	440	–	–
CC(Oc1cccc2nc(N)nc(N)c12)c1ccccc1C(F)(F)F (racemic)	1010	–	–
CC(Oc1cccc2nc(N)nc(N)c12)c1ccc(Cl)cc1 (racemic)	80	–	–
